Data taken from paper PMC4527839, “Synergistic Activity of the Plant Defensin HsAFP1 and Caspofungin against Candida albicans Biofilms and Planktonic Cultures” (PLoS ONE, 2015).
Counter-ions that a name gives are not always drawn. Like-named read-outs stand apart in the source and are kept apart here.

What was measured:
[1] = tested on: C. albicans SC5314 planktonic cultures; test: Checkerboard assay, planktonic cultures; type: cell-based; settings: Candida albicans, antimycotic alone, [rHsAFP1] 0 μM, OD at 490 nm, mean ± SEM, n ≥ 3, read-out: MIC50 CAS or AMB
Source text: To test whether rHsAFP1 is as potent as HsAFP1 purified from the seeds of coral bells, we analysed the antifungal activity of both peptides against F. culmorum, following the standard CLSI protocol M28-A2 [50], with minor modifications as previously described by Osborn and colleagues: an inoculum of approximately 10^4 spores/mL of F. culmorum was suspended in half strength PDB and added to a two-fold dilution series of rHsAFP1 in water. Seed-derived HsAFP1 was purified according to the protocol as previously described by Osborn and colleagues. […] The antifungal activity of rHsAFP1 against C. albicans was subsequently analysed according to the standard CLSI protocol M27-A3 [51] with minor modifications: an inoculum of approximately 10^6 cells/mL was suspended in RPMI-1640 medium and added to a two-fold dilution series of rHsAFP1 in water. The DMSO concentration was similar to that in the biofilm assays, i.e. 0.5% DMSO.
(§1) C. albicans biofilms or C. albicans planktonic cultures were grown as described above. […] Synergy was determined by calculating the Fractional Inhibitory Concentration Index (FICI), in which the actual concentration of compound A (i.e. rHsAFP1) in the checkerboard experiment was used, as indicated in Tables 1–3 and 4.
(§2) Data were analysed with GraphPad Prism (GraphPad Software, Inc., CA, USA). […]

[2] = tested on: C. albicans SC5314 biofilms; test: Checkerboard assay, biofilm formation inhibition; type: cell-based; settings: Candida albicans, CTB assay, mean ± SEM
Procedure: The Biofilm Inhibitory Concentration 50 value (BIC50; the minimum concentration required to reduce biofilm formation by 50% as compared to control treatment) of rHsAFP1 was determined using the following antibiofilm assay: a C. albicans SC5314 overnight culture, grown in YPD, was diluted to an optical density (600 nm) of 0.1 in RPMI 1640 medium and 100 μL of this suspension was added to the wells of a round-bottomed microtitre plate (TPP, Tradingen, Switzerland). After 1 h of adhesion at 37°C, the medium was aspirated and the biofilms were washed with 100 μL phosphate-buffered saline (PBS) to remove non-adherent cells. Fresh RPMI 1640 medium, followed by an rHsAFP1 concentration series was added to the biofilms. The DMSO concentration was similar to that in the checkerboard assays, i.e. 0.5%. Biofilms were allowed to grow for 24 h at 37°C and were subsequently washed with PBS and quantified with CellTiter-Blue (CTB; Promega, WI, USA)) by adding 100 μL of CTB diluted 1/10 in PBS to each well. After 1 h of incubation in the dark at 37°C, the fluorescence was measured with a fluorescence spectrometer (λEx/λEm: 535/590 nm). The fluorescence values of the samples were corrected by subtracting the average fluorescence value of the CTB of uninoculated wells (blank). The percentage of surviving biofilm cells was calculated relative to the control treatment (0.5% DMSO).
as §1, with “above. A combination of rHsAFP1 and antimycotic (caspofungin or amphotericin B), two-fold diluted across the columns and rows of a 96-well plate, respectively, was added to the planktonic culture or to the biofilms.” for “above.”
as §2

[3] = tested on: C. albicans SC5314 biofilms (24 hours-old); test: Checkerboard assay, biofilm eradication; type: cell-based; settings: Candida albicans, antimycotic alone, [rHsAFP1] 0 μM, CTB assay, mean ± SEM, n ≥ 3, read-out: BEC50 CAS or AMB
Procedure: The Biofilm Eradicating Concentration 50 value (BEC50; the minimum concentration required to reduce the viability of the cells in a pre-grown biofilm by 50% as compared to control treatment) of rHsAFP1 was determined using the BEC50 determination assay as described by De Cremer and co-workers. Briefly, a C. albicans SC5314 overnight culture, grown in YPD, was diluted to an optical density (600 nm) of 0.1 in RPMI 1640 medium and 100 μL of this suspension was added to the wells of a round-bottomed microtitre plate (TPP, Tradingen, Switzerland). After 1 h of adhesion, the biofilms were washed with 100 μL PBS to remove non-adherent cells, followed by addition of 100 μL RPMI 1640 medium. The biofilms were allowed to grow for 24 h at 37°C. Next, an rHsAFP1 concentration series in RPMI was added to the biofilms. […] The biofilms were incubated for another 24 h at 37°C, after which they were washed and quantified with CTB as described above.
as §1, §2

[4] = tested on: C. albicans and C. glabrata biofilms; parameters: method as in PMID 24284780; settings: combination with caspofungin; cited from earlier work
[5] = antimycotic alone, [rHsAFP1] 0 μM, n ≥ 3, read-out: BIC50 CAS or AMB

Compound	MIC50 [1] [µM]	IC50 [2, 5] [nM]	IC50 [3] [nM]	fold reduction of the caspofungin BIC50 [4]	IC50 ([2]; CAS alone, [HsLin06] 0 μM, n ≥ 3, read-out: BIC50 CAS) [nM]
C[C@@H]1[C@H](O)[C@@H](C)/C=C/C=C/C=C/C=C/C=C/C=C/C=C/[C@H](O[C@@H]2O[C@H](C)[C@@H](O)[C@H](N)[C@@H]2O)C[C@@H]2O[C@](O)(C[C@@H](O)C[C@@H](O)[C@H](O)CC[C@@H](O)C[C@@H](O)CC(=O)O[C@H]1C)C[C@H](O)[C@H]2C(=O)O [AMB alone, amphotericin B]	0.44 ± 0.06	1230 ± 150	1670 ± 300		
CN(C)CCOc1ccc(/C(=C(/CCCl)c2ccccc2)c2ccccc2)cc1 [toremifene citrate]				up to 20 fold	
CC[C@H](C)C[C@H](C)CCCCCCCCC(=O)N[C@H]1C[C@@H](O)[C@@H](NCCN)NC(=O)[C@@H]2[C@@H](O)CCN2C(=O)[C@H]([C@H](O)CCN)NC(=O)[C@H]([C@H](O)[C@@H](O)c2ccc(O)cc2)NC(=O)[C@@H]2C[C@@H](O)CN2C(=O)[C@H]([C@@H](C)O)NC1=O [CAS alone, caspofungin]	0.02 ± 0.01	720 ± 50	400 ± 80		900 ± 50
